# pIC50, pKi: −log10 of the molar value.
# Target: T1, Induced myeloid leukemia cell differentiation protein Mcl-1 [171-327] (Homo sapiens, UniProt Q07820)
# T1 construct: 171-327
# Assay: TR-FRET Binding A
# Conditions: pH 7.4; 24 °C
# Description: Compound IC50 values were assessed following a 10-point, half-log10 dilution schema starting at 10 uM compound concentration. The assay was performed in 384-well LV plates (Matrix 4365, Thermo Scientific) and run in the presence and absence of the compound of interest. Each well of 12 uL assay mixture contained 10 mM Tris (pH 7.4), 1 mM DTT, 0.005% Tween-20, 150 mM NaCl, 10% DMSO, 3 nM GST-Mcl-1, 1 nM LanthaScreen Eu-tagged GST antibody (#PV5594, Invitrogen, Life Technologies), and 8 nM fluorescently labeled peptide. Reactions were incubated at 24 °C for 60 min before reading on a Tecan F500 spectrofluorometer with excitation at 340 nm and emission at 620 nm and 665 nm. Subsequently, the ratio of fluorescence emission intensity at 665 nm to 620 nm was calculated for each reaction, and the dose response of the ratio to testing compound concentration was fitted to a select fit model that will provide the best fit quality using automatic parameters to derive IC50 values for each testing compound.
# T1 sequence (Q07820 171-327): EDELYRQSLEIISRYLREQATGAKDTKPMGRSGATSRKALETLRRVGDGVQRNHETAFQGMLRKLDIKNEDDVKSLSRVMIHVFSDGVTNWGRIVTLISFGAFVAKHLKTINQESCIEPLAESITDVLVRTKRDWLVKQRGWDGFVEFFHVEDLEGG
SMILES,pIC50,pKi
"CC(=O)c1cccc(OCc2nn(C)c(C)c2-c2cccc3c(CCCOc4cccc5ccccc45)c(C(=O)O)[nH]c23)c1 [7-(3-((3-Acetylphenoxy)methyl)-1,5-dimethyl-1H-pyrazol-4-yl)-3-(3-(naphthalen-1-yloxy)propyl)-1H-indole-2-carboxylic acid, 8]",6.63,7.19
"Cc1c(-c2cccc3c(CCCOc4cccc5ccccc45)c(C(=O)O)[nH]c23)c(COc2cccc(C=O)c2)nn1C [7-(3-((3-formylphenoxy)methyl)-1,5-dimethyl-1H-pyrazol-4-yl)-3-(3-(naphthalen-1-yloxy)propyl)-1H-indole-2-carboxylic acid, 7]",7.23,7.80
"Cc1c(-c2cccc3c(CCCOc4cccc5ccccc45)c(C(=O)O)[nH]c23)c(COc2ccc(B(O)O)c(C=O)c2)nn1C [7-(3-((4-Borono-3-formylphenoxy)methyl)-1,5-dimethyl-1Hpyrazol-4-yl)-3-(3-(naphthalen-1-yloxy)propyl)-1H-indole-2-carboxylic acid, 5]",8.47,9.05

# Further compounds by rising pIC50, results first:
pIC50,pKi,SMILES
6.42,6.98,Cc1c(-c2cccc3c(CCCOc4cccc5ccccc45)c(C(=O)O)[nH]c23)c(COc2ccccc2)nn1C [Mcl-1 inhibitor 10]
8.22,8.80,CCc1nn(C)c(CC)c1-c1cccc2c(CCCOc3cccc4ccccc34)c(C(=O)O)n(CCN3CCOCC3)c12 [Mcl-1 inhibitor 12]
8.33,8.92,"CC(=O)c1cc(OCc2nn(C)c(C)c2-c2cccc3c(CCCOc4cccc5ccccc45)c(C(=O)O)[nH]c23)ccc1B(O)O [7-(3-((3-Acetyl-4-boronophenoxy)methyl)-1,5-dimethyl-1H-pyrazol-4-yl)-3-(3-(naphthalen-1-yloxy)propyl)-1H-indole-2-carboxylic acid, 6]"
8.38,8.92,"Cc1c(-c2cccc3c(CCCOc4cccc5ccccc45)c(C(=O)O)n(C)c23)c(COc2ccc(B(O)O)c(C=O)c2)nn1C [7-(3-((4-Borono-3-formylphenoxy)methyl)-1,5-dimethyl-1Hpyrazol-4-yl)-1-methyl-3-(3-(naphthalen-1-yloxy)propyl)-1H-indole-2-carboxylic acid, 11]"

# — BindingDB's records for doi:10.1038/nchembio.2174 (Oncology Innovative Medicines Unit, 2016)
